Data from patent EP1388586A2, “Identification of broadly reactive DR restricted epitopes” (priority 1998, dated 1999).
Where two headings read alike, the source gives them in different places. Ends that are not written are not given here.

What was measured:
DRB1*1501 (DR2w2b) = target: T1, DRB1*1501 (DR2w2b) (Homo sapiens, UniProt P01903+P01911); experiment: Class II peptide-binding assay, DR2w2b (DR2w2B1)
T1 construct: expressed in transfected cells; host or cells: L466.1 transfected fibroblasts
Protocol: (§1) Class II peptide-binding assays. […] These assays were chosen as to be representative of the most common DR alleles.
(§2) In appropriate stoichiometric conditions, the IC50 of an unlabeled test peptide to the purified DR is a reasonable approximation of the affinity of interaction (Kd). Peptides were tested in two to four completely independent experiments. […] Final detergent concentration in the incubation mixture was 0.05% Nonidet P-40. Assays were performed at pH 7.0 with the exception of DR3, which was performed at pH 4.5, and DRw53, which was performed at pH 5.0.
(§3) All subsequent inhibition and direct binding assays were the performed using these class II concentrations.

DRB1*1101 (DR5w11) = target: T2, DRB1*1101 (DR5w11) (Homo sapiens, UniProt P01903+P01911, A100R/A169T/A87E/I96F/K41T/L162R/M171V/P40S/Q125H/Q178H/Q39Y/Q99D/R42S/S66Y/T262R/V115G/W38E); experiment: Class II peptide-binding assay, DR5w11;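 note: competition by unlabeled test peptide against iodinated probe peptide binding to affinity-purified HLA-DR, class II amount titrated beforehand, half-maximal inhibitory concentration read as approximate Kd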
T2 construct: used as sources of human HLA class II molecules; endogenous in cells; host or cells: SWEIG (EBV-transformed homozygous B cell line)
T2 sequence (P01903 26-254, other chains not shown): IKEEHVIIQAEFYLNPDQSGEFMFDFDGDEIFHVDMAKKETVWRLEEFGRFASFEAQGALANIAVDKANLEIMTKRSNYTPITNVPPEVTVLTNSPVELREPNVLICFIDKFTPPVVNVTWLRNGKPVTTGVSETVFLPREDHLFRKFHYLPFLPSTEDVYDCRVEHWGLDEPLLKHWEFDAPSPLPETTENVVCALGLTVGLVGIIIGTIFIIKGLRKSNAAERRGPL

DRB1*1302 (DR6w19) = DRB1*1302 (DR6w19) (Homo sapiens, UniProt P01903+P01911, A100E/A169T/K41T/L162R/M171V/P40S/Q125H/Q178H/Q39Y/Q99D/R42S/S66N/T262R/V115G/W38E/Y61H); assay type: binding; details: read-out: In IC50 Format DR6w19 nM; Table VIII; values in parentheses read as lower bounds
DRB1*1302 (DR6w19), sequence (P01903 26-254, other chains not shown): as above
Protocol: The lysates were cleared of debris and nuclei by centrifugation at 10,000 x g for 20 min.
Affinity purification of HLA-DR molecules.
as §1
(§4) Radiolabeled peptides were iodinated using the chloramine-T method. […] In appropriate stoichiometric conditions, the IC50 of an unlabeled test peptide to the purified DR is a reasonable approximation of the affinity of interaction (Kd). Peptides were tested in two to four completely independent experiments. […] Final detergent concentration in the incubation mixture was 0.05% Nonidet P-40. Assays were performed at pH 7.0 with the exception of DR3, which was performed at pH 4.5, and DRw53, which was performed at pH 5.0.
as §3
DR6w19. The DR6w19 assay utilizes as the source of class II molecules the EBV transformed homozygous cell line H0301, which co-expresses DRB30301 (DR52a). While the radiolabeled ligand used in the DR6w19 assay is different than that used for the DR52a assay, the ligand is related (i.e., is a single substitution analog) to a high affinity DR52a binder. As was done in the case of DR4w15, the specificity of the assay was investigated by analyzing the binding capacity of a panel of naturally occurring peptides for DR6w19 and DR52a.

DRB1*0701 (DR7) = DRB1*0701 (DR7) (Homo sapiens, UniProt P01903+P01911, A100R/A102G/A103Q/D57E/D86V/E43K/F76Y/K127E/L162R/M171V/P40G/Q125H/Q99D/R33Q/R42Y/R54Q/S133A/S66F/T210M/V115G/Y107V/Y59L/Y89S); experiment: Class II peptide-binding assay, DR7;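 note: unlabeled peptides compete with an iodinated probe peptide for binding to affinity-purified HLA-DR at neutral pH, DR amount titered to bind a small tracer fraction, IC50 approximating Kd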
DRB1*0802 (DR8w2) = target: T3, DRB1*0802 (DR8w2) (Homo sapiens, UniProt P01903+P01911, A100R/A103L/A169T/F76Y/H45Y/I96F/K41T/L162R/M171V/P40S/Q125H/Q178H/Q39Y/Q99D/R218S/R42G/S66Y/V115G/W38E); experiment: Class II peptide-binding assay, DR8w2; details: read-out: In IC50 Format DR8w2 nM; Table VIII; values in parentheses read as lower bounds
T3 construct: used as sources of human HLA class II molecules; endogenous in cells; host or cells: OLL (EBV-transformed homozygous B cell line)
Protocol: as §1, §4, §3
DR8w2 and DR8w3. The β1 specificity of the DR8w2 and DR8w3 assays is obvious in that no β3 (and/or B4 and β5) molecule is expressed.

DRB1*0101 (DR1) = target: T4, DRB1*0101 (DR1) (Homo sapiens, UniProt P01903+P01911, A100R/D57E/F55L/F60I/F76Y/I96L/L162R/M171V/P40L/Q125E/R42F/V115G/Y59C); experiment: Class II peptide-binding assay, DR1;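 note: competition assay: unlabeled test peptides inhibit binding of a radiolabeled probe peptide to purified DR, with half-maximal inhibition taken as an approximate dissociation constant Kd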
T4 construct: used as sources of human HLA class II molecules; endogenous in cells; host or cells: LG2 (EBV-transformed homozygous B cell line)
Protocol: as §1, §4, §3

DRB5*0101 (DR2w2a) = target: T5, DRB5*0101 (DR2w2a) (Homo sapiens, UniProt P01903+Q30154); experiment: Class II peptide-binding assay, DR2w2a (DR2w2B2);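 note: competitive binding assay: unlabeled peptide inhibiting binding of a radiolabeled probe peptide to purified DR molecules at pH 7.0, IC50 approximating Kd, lower means stronger binding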
T5 construct: used as sources of human HLA class II molecules; endogenous in cells; host or cells: GM3107 (EBV-transformed homozygous B cell line)
Protocol: as §1, §4, §3

DRB1*0301 (DR3w17) = target: T6, DRB1*0301 (DR3w17) (Homo sapiens, UniProt P01903+P01911, A100K/A102G/A103R/A169T/F55Y/I96L/K41T/L162R/M171V/P40S/Q125H/Q178H/Q39Y/R42S/S66N/T106N/T262R/W38E/Y61H); experiment: Class II peptide-binding assay, DR3 (pH 4.5); details: purified HLA DR3; read-out: DR3 nM (In IC50 Format);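 note: unlabeled peptide competing with a radiolabeled probe peptide for binding to affinity-purified HLA-DR3, IC50 regarded as an approximation of Kd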
T6 construct: used as sources of human HLA class II molecules; endogenous in cells; host or cells: MAT (EBV-transformed homozygous B cell line)
T6 sequence (P01903 26-254, other chains not shown): as above

DRB1*0401 (DR4w4) = target: T7, DRB1*0401 (DR4w4) (Homo sapiens, UniProt P01903+P01911, A100K/A169T/F76Y/I96L/K127E/L162R/M171V/N62H/P40V/Q125Y/R42H/S133A/S149N/S66Y/V115G/V209L/W38E); experiment: Class II peptide-binding assay, DR4w4; details: purified HLA DR4w4; read-out: DR4w4 nM (In IC50 Format);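 note: unlabeled test peptides compete with a radiolabeled probe peptide for binding to affinity-purified HLA-DR, with DR amount titrated to capture a small fraction of label, IC50 approximating Kd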
T7 construct: used as sources of human HLA class II molecules; endogenous in cells; host or cells: PREISS (EBV-transformed homozygous B cell line)

DRB10404 (DR4w14) = target: T8, DRB10404 (DR4w14) (Homo sapiens, UniProt P01903+P01911, A100R/A169T/F76Y/I96L/K127E/L162R/M171V/N62H/P40V/Q125Y/R42H/S133A/S149N/S66Y/V209L/W38E); experiment: Class II peptide-binding assay, DR4w14; details: purified HLA DR4w14; read-out: DR4w14 nM (In IC50 Format);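 note: unlabeled peptides compete with a radiolabeled probe for binding to affinity-purified HLA-DR, neutral pH, class II amount titrated to bind a small fraction of label, IC50 approximates Kd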
T8 construct: used as sources of human HLA class II molecules; endogenous in cells; host or cells: BIN40 (EBV-transformed homozygous B cell line)
Protocol: as §1, §2, §3

[1] = read-out: In IC50 Format DR2w2B1 nM, Table VIII, values in parentheses read as lower bounds
[2] = read-out: In IC50 Format DR5w11 nM, Table VIII, values in parentheses read as lower bounds
[3] = read-out: In IC50 Format DR7 nM, Table VIII, values in parentheses read as lower bounds
[4] = read-out: In IC50 Format DR1 nM, Table VIII, values in parentheses read as lower bounds
[5] = read-out: In IC50 Format DR2w2B2 nM, Table VIII, values in parentheses read as lower bounds

## CC[C@H](C)[C@H](NC(=O)[C@H](CC(C)C)NC(=O)[C@H](C)NC(=O)[C@@H](N)CC(C)C)C(=O)N[C@@H](Cc1c[nH]cn1)C(=O)N[C@@H](Cc1c[nH]cn1)C(=O)N[C@@H](CC(N)=O)C(=O)N[C@H](C(=O)N[C@@H](Cc1c[nH]cn1)C(=O)N[C@@H](CC(C)C)C(=O)N[C@@H](CS)C(=O)N[C@@H](Cc1ccccc1)C(=O)N[C@H](C(=O)N[C@@H](Cc1c[nH]cn1)C(=O)N[C@H](C(=O)O)[C@@H](C)O)C(C)C)[C@@H](C)O [Peptide 39.0352]
DRB1*1501 (DR2w2b); [1]
  IC50: 0.0919 µM
DRB1*1101 (DR5w11); [2]
  IC50: 8 µM
DRB1*1302 (DR6w19)
  IC50: 0.0047 µM
DRB1*0701 (DR7); [3]
  IC50: 1.25 µM
DRB1*0802 (DR8w2)
  IC50: 1.48 µM

## CC(C)C[C@H](NC(=O)[C@H](C)NC(=O)[C@H](CCC(N)=O)NC(=O)[C@H](Cc1c[nH]cn1)NC(=O)[C@@H]1CCCN1C(=O)[C@H](CC(N)=O)NC(=O)[C@H](CCCNC(=N)N)NC(=O)[C@H](Cc1ccccc1)NC(=O)[C@H](CC(C)C)NC(=O)[C@H](CCC(N)=O)NC(=O)[C@H](CC(=O)O)NC(=O)[C@@H](N)Cc1c[nH]c2ccccc12)C(=O)N[C@@H](CC(C)C)C(=O)N[C@@H](Cc1c[nH]cn1)C(=O)N[C@H](C(=O)O)[C@@H](C)O [Peptide 39.0354]
DRB1*0101 (DR1); [4]
  IC50: > 50 µM
DRB1*1501 (DR2w2b); [1]
  IC50: 6.07 µM
DRB5*0101 (DR2w2a); [5]
  IC50: > 28.6 µM
DRB1*1101 (DR5w11); [2]
  IC50: > 25 µM
DRB1*0701 (DR7); [3]
  IC50: > 14.7 µM
DRB1*0802 (DR8w2)
  IC50: > 54.4 µM

## CC[C@H](C)[C@H](NC(=O)[C@H](CCSC)NC(=O)[C@H](Cc1c[nH]c2ccccc12)NC(=O)[C@@H](N)CS)C(=O)N[C@@H](CC(=O)O)C(=O)N[C@@H](CO)C(=O)N[C@@H](CCC(=O)O)C(=O)N[C@@H](CS)C(=O)N[C@@H](CCCNC(=N)N)C(=O)N1CCC[C@H]1C(=O)N[C@@H](CCCNC(=N)N)C(=O)N[C@@H](Cc1ccccc1)C(=O)N[C@@H](CCCNC(=N)N)C(=O)N[C@@H](CCC(=O)O)C(=O)N[C@@H](CC(C)C)C(=O)O [Peptide 39.0369]
DRB1*1501 (DR2w2b); [1]
  IC50: > 15.2 µM
DRB5*0101 (DR2w2a); Table VIII, values in parentheses read as lower bounds, read-out: In IC50 Format DR2w2B2
  IC50: 1.33 µM
DRB1*1101 (DR5w11); [2]
  IC50: > 25 µM
DRB1*1302 (DR6w19)
  IC50: > 35 µM
DRB1*0701 (DR7); [3]
  IC50: > 17.9 µM

## CC[C@H](C)[C@H](NC(=O)[C@H](Cc1ccc(O)cc1)NC(=O)[C@@H]1CCCN1C(=O)[C@H](CC(=O)O)NC(=O)[C@H](CCC(=O)O)NC(=O)[C@H](CC(C)C)NC(=O)[C@@H](NC(=O)[C@H](C)N)C(C)C)C(=O)N[C@@H](CC(C)C)C(=O)N[C@@H](CC(C)C)C(=O)N[C@H](C(=O)N[C@@H](CO)C(=O)N[C@@H](CO)C(=O)N[C@@H](CCCCN)C(=O)N[C@H](C(N)=O)C(C)C)C(C)C [Peptide 753.01]
DRB1*0101 (DR1); purified HLA DR1, read-out: DR1 nM (In IC50 Format)
  IC50: 0.0238 µM
DRB1*1501 (DR2w2b); purified HLA DR2w2β1, read-out: DR2w2β1 nM (In IC50 Format)
  IC50: 0.0364 µM
DRB5*0101 (DR2w2a); purified HLA DR2w2β2, read-out: DR2w2B2 nM (In IC50 Format)
  IC50: 2.86 µM
DRB1*0301 (DR3w17)
  IC50: 75 µM
DRB1*0401 (DR4w4)
  IC50: 9 µM
DRB10404 (DR4w14)
  IC50: 0.333 µM
DRB1*1101 (DR5w11); purified HLA DR5w11, read-out: DR5w11 nM (In IC50 Format)
  IC50: 6.67 µM
DRB1*0701 (DR7); purified HLA DR7, read-out: DR7 nM (In IC50 Format)
  IC50: 0.439 µM

## ARLLDIDETEYHADG [Peptide 39.0366]
DRB1*0101 (DR1); [4]
  IC50: 50 µM
DRB1*1501 (DR2w2b); [1]
  IC50: > 15.2 µM
DRB5*0101 (DR2w2a); [5]
  IC50: > 28.6 µM
DRB1*1101 (DR5w11); [2]
  IC50: > 25 µM
DRB1*1302 (DR6w19)
  IC50: > 35 µM
DRB1*0701 (DR7); [3]
  IC50: > 14.7 µM
DRB1*0802 (DR8w2)
  IC50: > 54.4 µM
